Key:
MPTP-treated mice = experiment: Sub-chronic MPTP mouse model of Parkinson's disease, TH-positive neurons in the substantia nigra; assay type: in vivo; conditions: AOL 5 mg/kg i.p., 11 consecutive days; p<0.01
Method: In this study, the potential neuroprotective effects of AOL were assessed by counting the number of tyrosine hydroxylase (TH)-positive neurons in the substantia nigra (SN) in the sub-chronic 1-methyl-4-phenyl-1,2,3,6-tetrahydropyridine (MPTP) mouse model of Parkinson's disease. Mice were treated with AOL (5 mg/kg; i.p.) or vehicle for 11 consecutive days. MPTP (20 mg/kg; i.p.) or saline was administered on treatment days 4-8. All mice were killed on day 12 following final administration of treatment.
For vehicle conditions, the test item was dissolved in 0.5% DMSO/0.95% Tween 20 in saline while AOL was administered intraperitoneally (i.p.) at the dose of 5 mg/kg. […]
Unbiased stereological analysis was used to estimate the number of TH-immunopositive (TH+) neurons (Mercator, Explora Nova, La Rochelle, France). The boundaries of the SN were determined by examining the size and shape of the different TH+ neuronal groups. The volume was calculated by using the formula: V=ΣS td; where ΣS is the sum of surface areas, t is the average section thickness and d is the number of slices between two consecutive sections measured. […] The following formula was used to estimate the number of TH+ neurons: N=V(SN) (ΣQ−/ΣV(dis)); where N is the estimation of cell number, V is the volume of the SN, ΣQ− is the number of cells counted in the dissectors, and ΣV(dis) is the total volume of all the dissectors. […]

[1] = tested on: chronic hypoxic rats and monocrotaline-treated rats; experiment: Pulmonary hypertension rat models (chronic hypoxia, monocrotaline); assay type: in vivo
Method: Male Wistar rats (300-400 g) were separated into 3 groups and used 4 weeks later: • the first group (control or normoxic rats—N rats) was housed in ambient room air; • the second group (chronic hypoxic rats—CH rats) was exposed to chronic hypoxia for 3 weeks in a hypobaric chamber (50 kPa); and • the third group (MCT rats) was injected with a single intraperitoneal dose of monocrotaline at a dose of 60 mg/kg. MCT (Sigma, St Quentin Fallavier, France) was dissolved in an equal volume of HCl (1 M) and NaOH (1 M).
In each group, some animals were treated with AOL (Sulfarlem, EG Labo Eurogenerics. Crushed tablets mixed with food, fed ad libitum) and some other animals were untreated. Eaten food was weighed every day to estimate the AOL dose administered. 10 mg/kg/day was thus administered during the 3 weeks of experiment for the second and third groups.
Pulmonary hypertension was assessed by measuring both the mean pulmonary arterial pressure (mPAP) and right ventricle hypertrophy. To measure PAP, N, CH and MCT rats were anesthetized with pentobarbital sodium (Centravet) by intraperitoneal injection (60 mg/kg) and mPAP was measured, in closed-chest rats, through a catheter inserted in the right jugular vein, then through the right atria and the right ventricle into the pulmonary artery, and attached to a Baxter Uniflow gauge pressure transducer. Right ventricle hypertrophy was estimated by the ratio of right ventricle (RV) to left ventricle plus septum (LV+S) weight (Fulton index).
Pulmonary arteries (PA) remodeling was assessed by measuring the percentage of the PA medial thickness from sections of paraffin-embedded lung. Lung sections were first stained with hematoxylin and eosin (VWR) according to common histological procedure.

[2] = tested on: isolated rat heart mitochondria; experiment: Mitochondrial ATP synthesis (phosphorylation rate, pH electrode); assay type: biochemical
Method: Male Wistar rats (250-325 g; obtained from Janvier Labs, Le Genest-Saint-Isle, France) were killed by stunning and cervical dislocation, and the heart was quickly removed and washed in cold isolation medium containing 100 mM sucrose, 180 mM KCl, 50 mM Tris, 5 mM MgCl2, 10 mM EDTA, and 0.1% (w/v) defatted BSA (pH 7.2).
Isolation of heart mitochondria was performed in a cold chamber. Before homogenization, hearts (about 1.5 g) were minced with scissors and treated for 5 minutes in 5 mL of the same medium supplemented with protease (2 mg of bacterial proteinase type XXIV per mL of isolation buffer) with stirring. The tissue suspension was poured into a 50-mL glass Potter homogenizer, diluted with 20 mL of isolation buffer, then homogenized for 3 minutes using a motorized Teflon pestle. The homogenate was filtered through bolting cloth (Sefar Nitex) to remove debris, and centrifuged at 8,000 g for 10 minutes. The resulting pellet was rinsed with 5 mL of isolation buffer, resuspended in 25 ml of the same buffer, then subjected to low speed centrifugation (400 g) for 8 minutes. […] Protein concentration was determined by the Bradford method (Sigma, kit # B6916) using BSA as standard. […]
ATP synthesis was measured under the same conditions using a high sensitivity pH electrode (Metrohm) as previously described (Gouspillou et al., 2014. Aging Cell. 13(1):39-48).

SMILES	increase of the number of TH+ cells in the SN compared to vehicle in MPTP-treated mice (MPTP-treated mice)	Fulton index (right ventricular hypertrophy) ([1]; 10 mg/kg/day in food)	reduction of pulmonary arteries diameter (PA remodeling) ([1]; CH rats, 10 mg/kg/day)	mean pulmonary arterial pressure ([1]; MCT rats, 10 mg/kg/day in food, 3 weeks)	mean pulmonary arterial pressure ([1]; normoxic (N) rats)	concentration that completely abolishes phosphorylation rate [2]	concentrations that do not modify ATP synthesis [2]
COc1ccc(-c2cc(=S)ss2)cc1 [AOL, 5-(4-methoxyphenyl)-3H-1,2-dithiole-3-thione]	44%	no effect on the Fulton index	30%	decreased in MCT rats	no significant effect on the control group	–	–
Oc1ccc(-c2cc(=S)ss2)cc1 [AOX, 5-(4-hydroxyphenyl)-3H-1,2-dithiole-3-thione]	–	–	–	–	–	60 µM	lower than 20 μM

Reference: patent US11484529B2, “Desmethylanethole trithione derivatives for the treatment of diseases linked to mitochondrial reactive oxygen species (ROS) production” (OP2 Drugs, priority 2017, dated 2022)
